This is an account of results in patent US12357702B2, “Peptidic diagnostic compositions” (S. M. Discovery Group Inc., priority 2013, dated 2025).

Where a SMILES comes first, the peptide text is derived from it. Where no end group is shown, it is not given here. The star is where a group is joined. RhodamineB = CCN(CC)c1ccc2c(-c3ccccc3C(=O)*)c3ccc(=[N+](CC)CC)cc-3oc2c1; 5FAM = O=C1OC2(c3ccc(O)cc3Oc3cc(O)ccc32)c2ccc(C(=O)*)cc21; FAM = fluorescein amidite label

The subject of series [1] is hCMEC/D3 cells. The series can be described thus: double peptide-mediated GFP plasmid transfection. The series is classed as cell-based, human. The method, then: To evaluate double peptide (DP)-mediated gene transfection, different concentrations of DP and constant amounts of pcDNA3.1 NT-GFP expression plasmid (0.3 μg) (the peptide/DNA change ration of 1:10, 1:20 and 1:40 were investigated in this study) were mixed into 50 μL serum free media, and complexes were formed for 1 h at room temperature, after which another 150 μL serum free media was added (total volume of peptide/DNA complex was 200 μL). The cultured hCMEC/D3 cells (2×10^4 cells) were overlaid with 200 μL peptide/DNA complex, followed by incubation for 4 h at 37° C. in 5% CO2 atmosphere. The cultures were then a washed once with serum-free media and transferred to complete media containing 5% serum for growth. After 48 h, GFP gene expressions were monitored by fluorescence microscopy. Lipofectamine® 2000-mediated transfections were performed as described by the manufacturer's protocol (Life Technologies, CA, USA).

The subject of series [2] is hCMEC/D3 cells. Briefly: LDH cytotoxicity assay. The series is classed as cell-based, human. The note with it: 24 h; for LDH leakage in the medium compared to the control: 1 to 20 μM peptide. The method, then: Cell viability assessment following treatment of cells with the fluorescent peptide FIG. 26A or siRNA/FAM-CGY complex FIG. 26B for 24 h, determined by LDH assay (n=6). Background: untreated cells. To examine the cytotoxicity of the peptide and the siRNA/FAM-CGY complex, the hCMEC/D3 cells were incubated with concentrations 1, 2, 5, 10, 20 μM of the peptide and different relations of siRNA/FAM-CGY complexes (8:5, 16:5 or 24:5) for 24 h, the viability of cells without treatment was used as a control. The cytotoxicity was measured by a LDH assay. The LDH assay measures the membrane integrity as a function of the amount of cytoplasmic LDH leaked into the medium.
The cytoxicity of FAM-CGY peptide and siRNA/FAM-CGY complex was evaluated by […] (LDH) assay (FIG. 26). The hCMEC/D3 cells were incubated with different concentrations of the peptide (from 1 to 20 μM) and different formulations of siRNA/FAM-CGY complexes for 24 h. The viability of cells without treatment was used as a control. The LDH assay has means of measuring the membrane integrity as a function of the amount of cytoplasmic LDH leaked into the medium. […] Thus, there were no significant differences observed between the groups treated with FAM-CGY, FAM-d-CGY and CGY-FAM.

A short description of series [3]: Nanoparticle Tracking Analysis (NTA) of peptide self-assembly. The note with it: in MQ water. The series is classed as physicochemical. How it is done: To investigate whether the polypeptide conjugate can self-assemble, Nanoparticle Tracking Analysis (NTA) technology was employed to detect the peptide aggregation. Briefly, 1 mL peptide solutions with different concentrations (0.5, 1, 2.5 and 5 μM) were prepared by diluting the peptide stock solutions (500 μM) with MQ water and incubate for 30 min at room temperature. NTA measurements were performed with a NanoSight LM20 (NanoSight Ltd., Amesbury, United Kingdom) equipped with a sample chamber with a 405 nm blue laser and a Viton fluoroelastomer O-ring. The peptide samples were injected in the sample chamber with sterile syringes (BD Discardit II, New Jersey, USA) until the liquid reached the tip of the nozzle. All measurements were performed at room temperature. For the pH effect of FAM-CGY peptide assembly, FAM-CGY stock solution (500 μM) was diluted into 5 μM with 10 mM HEPES buffer where pH values were adjusted with 1 M HCl or 1 M NaOH, respectively.
Different molar rates of siRNA were added to the FAM-CGY peptide solution (50 μM/L) dropwise in saline solution and incubated for 30 min. […] The atomic force microscopy (AFM) (FIG. 22A), nanoparticle tracking analysis (NTA) (FIG. 22B), fluorescence microscopy (not shown), dynamic light scattering (DLS) technology (not shown) and transmission electron microscopy (TEM) (FIG. 23) were employed to characterize the siRNA/FAM-CGY complex. […]

Series [4] concerns hCMEC/D3 cells. The series can be described thus: delivery of cargo peptides by Rh-CGY or CGY peptidic complexes (microscopy, FACS). The series is classed as cell-based, human. The note with it: 10 μM Rh-CGY or CGY peptide, 24 h. The method, then: Peptidic complexes were formed by drop addition of cargoes (FAM-(C)-NAP, FAM-GYR, FAM-NAP, FAM) to 80 μM rhodamine-conjugated CGY peptide (Rh-CGY) or 80 μM CGY peptide (Table X) in MilliQ (MQ) water with equitable liquid volume and incubated for 60 min. The mixture was diluted with MQ water to a final Rh-CGY or CGY peptide concentration of 10 μM. The peptidic complexes were characterized by NTA for size and electron microscopy (EM) for mophology. Western blot was also employed to detect disulfide bond, which form between the cargo and Rh-CGY peptide or CGY peptide. Briefly, the peptide or complex samples were loaded on 10% Bis-Tris mini gels (Invitrogen, CA, USA) and subjected to electrophoresis. The separated samples were electrophoretically transferred to PVDF membranes by use of an iBlot™ Gel Transfer Device (Life Technologies, USA). Membranes were blocked for 1 h at room temperature in 3% BSA/TBST (137 mM Sodium Chloride, 20 mM Tris, 0.1% Tween-20, pH 7.6), and incubated over night at 4° C. with HRP-Goat anti-Fluorescein antibody (diluted 1:1000 in 2% BSA/TBST). For detection, membranes were incubated with Novex® ECL Chemiluminescent Substrate Reagent Kit (Invitrogen, CA, USA).
Delivery peptide to hCMEC/D3 cells. […] Live cell images were obtained by widefield microscopy, and the intercellular fluorescence intensity was quantified by FACS.

Series [5] deals with hCMEC/D3 cells. Briefly: uptake of FAM-CGY and FAM-GYR-GYR peptides by FACS. It counts as cell-based, human. The note with it: 1-10 μM, 24 h, all tested concentrations. How it is done:
The different cellular uptake of FAM-CGY and FAM-GYR-GYR peptides in hCMEC/D3 cells was investigated by flow cytometry (FACS). hCMEC/D3 cells (2×10^4/cm^2) were seeded on 24-well plate (Corning, NY) and grown 2 days at 37° C. and 5% CO2 in order to reach 60%-70% confluency. The cells were washed 3 times with pre-heated PBS. The peptide uptake experiments were initiated by adding 200 μL of a range of FAM-CGY and FAM-GYR-GYR in different concentrations (1-10 μM/L, diluted in cell medium containing serum). The double peptide contains the sequence […](SEQ ID NO: 2) and optionally has an N-terminal cysteine residue.
After 24 h incubation at 37° C. with 5% CO2, each chamber was washed with pre-heated PBS 3 times, and harvested by trypsinization. A total of 10,000 cells were analyzed by flow cytometry (FACS Array™ Cell Analysis, BD, USA) (FIG. 35).
For orientation: A flow cytometer gives signals particle by particle.

Series [6] deals with brain capillary endothelial cells. The note with it: cited from earlier work.
Series [7] concerns complement activation products SC5d-9, C5a, and C3a. Briefly: complement activation in human serum. The note with it: healthy human serum, low and high concentration. The method, then: FIGS. 12A, 12B, and 12C are graphs illustrating a complement activation experiment. The complement activation products FIG. 12A. […], FIG. 12B. C5a, and FIG. 12C. C3a were quantified in healthy human serum after incubation of CGY, FAM-CGY and FAM-d-CGY peptide at low and high concentration. Background noise and positive control (Zymosan) are presented for each product. Complement activation and fixation is a fundamental process contributing to macrophage clearance of intravenously injected nanopaticles. Accordingly, complement activation studies in human serum were performed with low and high concentrations of FAM-CGY peptide and other peptides (CGY, FAM-d-CGY) for comparison. […] The responses were relatively low, and close to the background activation. Only a slight level of complement activation was observed compared to the positive control (Zymosan). There were no systematic differences between the activation below and above CMC. Conclusion: The FAM-CGY nanoparticles are unlikely to induce complement-mediated immune reactions following intravenous injection.

For the molecule GYRPVHNIRGHWAPGGGYRPVHNIRGHWAPG [DP], the “translocation of plasmids into cells” value in the series on hCMEC/D3 cells [1] (charge ratios of peptide/DNA more than 20) is reported as “able to mediate translocation of plasmids into cells”. Further, in the series on hCMEC/D3 cells [1] (peptide/DNA charge ratio 40:1, 48 h), the “transfection efficiency (GFP fluorescence intensity)” value is on record as “comparable with commercial transfection reagent Lipofectamine® 2000”.

Turning to “Cys-Gly-Tyr-Arg-Pro-Val-His-Asn-Ile-Arg-Gly-His-Trp-Ala-Pro-Gly-Lys-5-FAM (CGYRPVHNIRGHWAPGK(5FAM); not fully specified (C-terminus); printed as Cys-Gly-Tyr-Arg-Pro-Val-His-Asn-Ile-Arg-Gly-His-Trp-Ala-Pro-Gly-Lys-5-FAM) [CGY-FAM]”, in the series with hCMEC/D3 cells [2], the “LDH leakage in the medium compared to the control” value is recorded as “did not significantly increase”.

For “Rh-CGY: Rhdomine B conjugated with CGY peptide in the N-terminal (RhodamineB-CGYRPVHNIRGHWAPG)”, in series [3], the “mean (average) size of self-assembly (NTA)” value is 131±60 nm and the “mode (modal size) of self-assembly (NTA)” value worked out at 94 nm. Further, the “uptake / delivery of cargo into hCMEC/D3 cells” value in the series on hCMEC/D3 cells [4] is listed as “can efficiently enter the hCMEC/D3 cells”. Consider “5-FAM-dCys-dGly-dTyr-dArg-dPro-dVal-dHis-dAsn-dIle-dArg-dGly-dHis-dTrp-dAla-dPro-dGly [FAM-d-CGY]”, for which the “LDH leakage in the medium compared to the control” value in the series on hCMEC/D3 cells [2] was “did not significantly increase”. Turning to “FAM-GYR-GYR: FAM-labelled double peptide containing SEQ ID NO: 2, two GYR sequences joined by a glycine residue ({FAM}-GYRPVHNIRGHWAPGGGYRPVHNIRGHWAPG)”, the “uptake compared with FAM-CGY peptide (FACS)” value in the series on hCMEC/D3 cells [5] is “considerably higher uptake”. Turning to “GYRPVHNIRGHWAPG [SEQ ID NO: 1, targeting peptide of WO2011/005098]”, in series [6], the “liposome uptake when peptide is coupled to liposomes” value is “did not significantly increase liposome uptake”. Regarding `CC[C@H](C)[C@H](NC(=O)[C@H](CC(N)=O)NC(=O)[C@H](Cc1c[nH]cn1)NC(=O)[C@@H](NC(=O)[C@@H]1CCCN1C(=O)[C@H](CCCNC(=N)N)NC(=O)[C@H](Cc1ccc(O)cc1)NC(=O)CNC(=O)[C@H](CS)NC(=O)c1ccc2c(c1)C(=O)OC21c2ccc(O)cc2Oc2cc(O)ccc21)C(C)C)C(=O)N[C@@H](CCCNC(=N)N)C(=O)NCC(=O)N[C@@H](Cc1c[nH]cn1)C(=O)N[C@@H](Cc1c[nH]c2ccccc12)C(=O)N[C@@H](C)C(=O)N1CCC[C@H]1C(=O)NCC(=O)O` [FAM-CGY] (5FAM-CGYRPVHNIRGHWAPG-OH), in the series on hCMEC/D3 cells [2], the “LDH leakage in the medium compared to the control” value is reported as “did not significantly increase” and the “cytotoxicity (LDH assay)” value is “no significant cytotoxicity”. For the same molecule, the “effect on the level of complement activation products SC5d-9, C5a, and C3a” value in series [7] was “no significant effect”.
